Series [1] deals with HCT116 cells. The series is described as follows: Cellular uptake of Ru (ICP-MS). The series is classed as cell-based, human. The settings on record: HCT116, 15 μM, 24 h; mean ± SEM. The procedure: In these experiments, 1 × 10^6 HCT116 cells were seeded on 100 mm Petri dishes. After overnight preincubation in a drug-free medium, the cells were treated with the Ru complexes (15 μM) for 24 h. Afterward, the cells were extensively washed with PBS (37 °C), detached using 0.25% trypsin, washed twice with ice-cold PBS, and counted by an automatic cell counter. The cell pellets were digested using a microwave acid (HCl) digestion system (CEM Mars). The quantity of Ru taken up by the cells was determined by inductively coupled plasma mass spectrometry (ICP-MS). All experiments were carried out in triplicate.

Series [2] deals with RD. The experiment in a line: MTT antiproliferative assay. The class given is cell-based, human. Conditions: 72 h, mean ± SD. The procedure: All of the cell lines were cultivated in DMEM medium (high glucose 4.5 g L^–1, PAA, Pasching, Austria) supplemented with gentamycin (50 μg mL^–1, Serva, Heidelberg, Germany) and 10% heat-inactivated fetal bovine serum (PAA). The medium for MRC5pd30 cells was further supplemented by 1% nonessential amino acids (Sigma-Aldrich, Prague, Czech Republic). All cells were cultured as adherent monolayers in a humidified incubator at 37 °C in a 5% CO2 atmosphere and subcultured twice a week with an appropriate plating density. In vitro antiproliferative activity of Ru complexes was determined by the MTT or, alternatively, SRB assay as already described,[84] after 72 h of incubation of cells with various concentrations of the Ru complex. The reported IC50 values are an average of three independent experiments, each consisting of three replicates per concentration.

A short description of series [3]: Stability and speciation in deuterated cell culture medium (DMEM-d/DMSO-d6, NMR). Conditions: for Aquo species % in DMEM-d/DMSO-d6 at t0 / Aquo species % in DMEM-d/DMSO-d6 after 24h: DMSO-d6-DMEM-d 1:4 v/v; for Aquo species % in DMEM-d/DMSO-d6 after 24h: 37 °C; for residual complex % in DMEM-d/DMSO-d6: after 24 h at 37 °C. The series is classed as physicochemical. The procedure:
Powdered DMEM cell culture medium (1000 mg/L glucose and L-glutamine, without sodium bicarbonate and phenol red; D2902; Sigma-Aldrich) was dissolved in D2O (10 mg/mL), according to the manufacturer’s instructions. The solution of deuterated cell culture medium (“DMEM-d”) was treated with Me2SO2 (6.6 × 10^–3 M) and NaH2PO4/Na2HPO4 (0.10 M, pD = 7.5)[120]−[122] and then stored at 4 °C under N2. The selected ruthenium compound (2–3 mg) was dissolved in DMSO-d6 (0.14 mL; 0.18 mL for 4) and then diluted with DMEM-d up to 0.75 mL total volume (cRu ca. 4 × 10^–3 M). The mixture was stirred for 30 min, then filtered over celite, and transferred into an NMR tube. The resulting yellow solution was analyzed by ^1H and ^31P NMR (delay time = 3 s; number of scans = 20) and then heated at 37 °C for 24 h. After cooling to room temperature, NMR analyses were repeated. Compound 1 was instead dissolved in a DMSO-d6/DMEM-d 4:1 v/v solution (0.7 mL; [Ru] = approx. 3 × 10^–3 M) containing Me2SO2 as the internal standard.[115] The percentage of the starting complex + related aquo complex was calculated by the relative integral with respect to Me2SO2 (δ/ppm = 3.16 in DMSO-d6/DMEM-d 1:4 and 1:3 v/v; δ/ppm = 2.95 in DMSO-d6/DMEM-d 4:1 v/v).

For series [4], the system named is CHO-K1. The experiment in a line: MTT assay, wild-type cells. The class given is cell-based, Chinese hamster. Conditions: 72 h. An excerpt:
(§1) The human cervical carcinoma HeLa cells and human colorectal carcinoma cells HCT116 were kindly supplied by Professor B. Keppler, University of Vienna (Austria). Human rhabdomyosarcoma RD cells were purchased from the American Type Culture Collection (ATCC, Manassas, VA). Human breast cancer MCF-7 cells, human skin melanoma 518A2 cells, and human MRC5pd30 cells derived from normal lung tissue were purchased from the European Collection of Authenticated Cell Cultures (ECACC) (Salisbury, U.K.). Chinese hamster ovary CHO-K1 cell line (wild type) and its derivative MMC-2 carrying the ERCC3/XPB mutation (NER-deficient) cell line were kindly supplied by Dr. […], Cancer Research Institute, Slovak Academy of Sciences, Bratislava (Slovakia). In vitro antiproliferative activity of Ru complexes was determined by the MTT or, alternatively, SRB assay as already described,[84] after 72 h of incubation of cells with various concentrations of the Ru complex. The reported IC50 values are an average of three independent experiments, each consisting of three replicates per concentration.
For orientation: Tetrazolium dyes change colour on reduction, which living cells bring about.

Series [5] deals with HCT116 cells. The series is described as follows: Confocal microscopy imaging of actin and tubulin. The settings on record: 24 h at IC50. The series is classed as cell-based, human. The procedure: HCT116 cells were seeded on coverslips precoated with 0.1% gelatin in six-well culture plates at a density of 1 × 10^5 cells/well. […] Following the treatment, the cells were washed with PBS, fixed with 4% p-formaldehyde, washed, permeabilized with 0.1% Triton X-100, and blocked. Samples for actin staining were blocked with 1.5% BSA for 1 h and then stained with Alexa Fluor 488-conjugated Phalloidin (Thermo Fisher Scientific, 1:50 dilution, 20 min). Samples for tubulin staining were blocked with 5% goat serum for 1 h and incubated with primary antibody (anti-α-tubulin, Abcam, 1:200 dilution, 1 h) and Alexa Fluor-conjugated secondary antibody (goat antirabbit, Abcam, 1:500 dilution, 1 h). Both groups of samples were mounted with ProLong Diamond Antifade Mountant with DAPI (Invitrogen). Cells were visualized on a confocal microscope Leica TCS SP8 SMD.

The test system of series [6] is MMC-2. The series is described as follows: MTT assay, NER-deficient cells. The settings on record: 72 h. The class given is cell-based, Chinese hamster.
Description: as §1

The test system of series [7] is mitochondria of HCT116 cells. The series is described as follows: Ru content in isolated mitochondria (ICP-MS). The settings on record: HCT116, 10 μM, 24 h. The class given is cell-based, human. The procedure:
The HCT116 cells were seeded at a density of 3 × 10^6 cells/10 mL Petri dish and incubated overnight. The cells were treated with Ru complexes (10 μM) for 24 h, harvested, and washed with ice-cold PBS, and mitochondrial fractions were extracted by the Mitochondrial Isolation Kit (MITOISO2, Sigma-Aldrich) according to the manufacturer’s instructions. The Ru content in each sample was evaluated by ICP-MS. The measurement was performed in triplicate.

The subject of series [8] is HCT116 (3D). The series is described as follows: Cytotoxicity in 3D spheroids (colonospheres), Cell Titer-Glo 3D. Conditions: for effect on the morphology of 3D spheroids: 20 µM, 72 h, bright-field images; for IC50: Cell Titer-Glo, spheroids, 72 h of treatment. The series is classed as cell-based, human. The procedure: A spontaneous spheroid formation was used to generate colonospheres derived from the HCT116 cell line. The HCT116 cells were seeded on 96-well ultralow attachment plates (1400 cells/well) and cultivated in a tumor sphere-forming medium (DMEM/F12, supplemented with B27 (Invitrogen), BSA, bFGF (10 ng mL^–1), and EGF (20 ng mL^–1)) for 4 days. After the incubation period, colonospheres were treated with Ru complexes for another 3 days. The viability of colonospheres was determined by the Cell Titer-Glo 3D cell viability assay (Promega) according to the manufacturer’s instructions. The reported IC50 values are the average of three independent experiments, each consisting of three replicates per concentration level. Bright-field images of the spheroids were taken as well to determine the effect on the morphology of the spheroids.
In general terms: Cellular ATP, detected with luciferase, serves as a proxy for viable cell number.

[9] abbreviates: DMSO-d6/DMEM-d 1:4 v/v, sum of chloro and aquo complexes.

Take “[RuCl(κ^3-tpm)(PPh3){CNCH2P(O)(OEt2)2}]Cl [compound 9]”: the “Accumulation of ruthenium, ng Ru/10^6 cells” value (from here on “Accumulation of ruthenium”) in series [1] turned out to be 16.2 ± 1.4 ng Ru/10^6 cells. For the same substance, it took 24 ± 3 µM to reach half-maximal inhibition in series [2] (IC50). For the same substance, in series [3], the “Aquo species % in DMEM-d/DMSO-d6 at t0” value is 0% and the “Aquo species % in DMEM-d/DMSO-d6 after 24h” value (“Aquo species % … after 24h” below) came out at 17%. In addition, the “residual complex % in DMEM-d/DMSO-d6” value in series [3] (setting [9]) turned out to be 97%.

As for “[RuCl(κ^3-tpm)(PPh3)(CNCy)]Cl [compound 8]”, the “Accumulation of ruthenium” value in series [1] was found to be 59.4 ± 0.6 ng Ru/10^6 cells. Further, the IC50 (commonly the concentration at which inhibition is half-maximal) in series [4] is 16 ± 4 µM; in series [2] it was 6.6 ± 0.7 µM; in series [6] it was 16 ± 3 µM; in series [8], 12.1 ± 2.7 µM. Also, in series [5], the “effect on structure, shape, and layout of tubulin and actin networks” value (“effect on structure, shape, and layout” for short) is on record as “did not significantly affect”. Further, in series [7], the “Ru in isolated mitochondria” value came out at 70 ± 15 pg Ru/10^6 cells. Further, the “Aquo species % in DMEM-d/DMSO-d6 at t0” value in series [3] is listed as 0%. Further, in series [3], the “Aquo species % … after 24h” value is recorded as 16%. Moreover, the “residual complex % in DMEM-d/DMSO-d6” value in series [3] (setting [9]) turned out to be 98%. The “effect on the morphology of 3D spheroids” value in series [8] is “heterogeneous morphology with several dissociated cell clumps”.

As for “[RuCl(κ^3-tpm)(PPh3){P(OMe)3}]Cl [compound 7]”, in series [1], the “Accumulation of ruthenium” value amounted to 63.3 ± 6.0 ng Ru/10^6 cells. Further, the IC50 amounted to 25.6 ± 0.5 µM in series [4], 6 ± 1 µM in series [2], 33 ± 2 µM in series [6] and 12.2 ± 2.5 µM in series [8]. Moreover, the “effect on structure, shape, and layout” value in series [5] is on record as “did not significantly affect”. For the same substance, in series [7], the “Ru in isolated mitochondria” value worked out at 127 ± 24 pg Ru/10^6 cells. For the same substance, the “Aquo species % in DMEM-d/DMSO-d6 at t0” value in series [3] came out at 0%. Also, the “Aquo species % … after 24h” value in series [3] is on record as 16%. In addition, the “residual complex % in DMEM-d/DMSO-d6” value in series [3] (setting [9]) came to 95%. Moreover, in series [8], the “effect on the morphology of 3D spheroids” value was “heterogeneous morphology with several dissociated cell clumps”.

Take [RuCl(κ^3-tpm)(PPh3)2]Cl [compound 1]: in series [1], the “Accumulation of ruthenium” value came to 145.1 ± 5.9 ng Ru/10^6 cells. In addition, the IC50 in series [4] amounted to 6.3 ± 0.2 µM; in series [2], 2.2 ± 0.2 µM; in series [6] it was 7.7 ± 0.2 µM; in series [8], 2.5 ± 0.6 µM. Also, in series [5], the “effect on structure, shape, and layout” value is given as “did not significantly affect”. Further, the “Ru in isolated mitochondria” value in series [7] worked out at 467 ± 66 pg Ru/10^6 cells. Besides, in series [3] (compound 1: DMSO-d6/DMEM-d 4:1 v/v), the “residual complex % in DMEM-d/DMSO-d6” value was found to be 88%. The “effect on the morphology of 3D spheroids” value in series [8] was “almost completely disintegrated”. Further, the “fold more effective than cisplatin” value in series [8] (3D spheroids HCT116) is recorded as “approximately 18 fold”.

On to “[RuCl(κ^3-tpm)(PPh3){NCHN(Me)(CH)2}]Cl [compound 3]”, for which the “Accumulation of ruthenium” value in series [1] is 66.1 ± 8.0 ng Ru/10^6 cells. Besides, the IC50 in series [2] turned out to be 27 ± 4 µM. Moreover, in series [3], the “Aquo species % in DMEM-d/DMSO-d6 at t0” value was found to be 0% and the “Aquo species % … after 24h” value came to 66%. In addition, the “residual complex % in DMEM-d/DMSO-d6” value in series [3] (setting [9]) stood at 100%.
